{"source": "paper PMC9138261", "about": "“Enhancing the Bioactivity of Bicyclic Peptides Targeted to Grb7-SH2 by Restoring Cell Permeability” (Biomedicines, 2022)", "molecules": {"B1": {"name": "G7-18NATE (peptide)", "peptide": "WFEGYDNTFPC", "modifications": "cyclic: thioether linkage that tethers the N-terminal amine to the cysteine side chain", "notes": "non-phosphorylated cyclic peptide of 11 amino acids identified by phage display; also called first-generation monocyclic peptide; source: synthetic peptide, bought: Purar Chemicals (RP-HPLC, >95% purity)"}}, "key": {"[1]": {"settings": "not told; cited from earlier work"}, "Grb7-SH2 domain [2]": {"target": "T1, Grb7-SH2 domain (Homo sapiens, UniProt Q14451)", "T1 construct": "made in house", "assay": "Surface plasmon resonance (SPR) binding to Grb7-SH2 domain", "settings": "for Kd: SPR BIAcore T100, GST-Grb7-SH2 captured via anti-GST antibody on CM5 chip, 50mM Na3PO4, 150–300 mM NaCl, 1 mM DTT pH 7.4, peptides without Penetratin, 0.015 to 250 μM, triplicate injections, steady-state, single-site binding model, errors are SD from model, SD, read-out: equilibrium dissociation binding constant (KD)", "experimental": "GST and GST-Grb7-SH2 proteins were expressed and purified as previously described. Briefly, Grb7-SH2 was expressed as a GST fusion, and protein was purified via GST affinity chromatography, followed by size exclusion chromatography.\nSPR experiments were carried out as previously described using the BIAcore T100 [23, 26]. BIAcore CM5 series S sensor chips (GE Life Sciences, Paramatta, NSW, Australia) were utilised. Amine coupling was used to immobilise the anti-GST antibody (Abcam, Cambridge, UK) to all flow cells. The immobilisation levels were between 11,000 RU and 7700 RU. As a control, the first flow cell captured only GST. GST-Grb7-SH2 was immobilised on flow cell 2 at close to 2800 RU. Peptides were resuspended in an analysis buffer consisting of 50mM Na3PO4, 150–300 mM NaCl, and 1 mM DTT (pH 7.4). The peptide was injected over flow cells at 30 μL/min for 60–80 s in triplicates. Double-referenced SPR data were analysed using Scrubber 2.0 (BioLogic Software, Campbell, ACT, Australia) and Prism 9.2.0 (GraphPad Prism v9.0, San Diego, CA, USA).\nHere, it should be noted that the peptides were tested in the absence of the Penetratin tail shown in the schematic (Figure 1). In brief, peptides, at a range of concentrations, flowed over the chip surface to which the Grb7-SH2 domain was tethered, and the response was detected over time. […] In order to quantitate the binding affinities, the equilibrium dissociation binding constants (KD) for each peptide were calculated using binding curves derived from the sensogram responses at equilibrium (Figure 2E).\nFigure 2 SPR binding analysis of newly developed Grb7-SH2-targeting peptides. […] Errors are SD arising from model."}, "Grb7-SH2 domain [3]": {"target": "T1, Grb7-SH2 domain", "settings": "earlier work; cited from earlier work", "excerpt": "Three peptides were designed with Phe-Pro, Phe-Trp, or Phe-Arg incorporated at positions 9 and 10 of the amino acid sequence. […] Thus, it can be concluded that the lactam linkage confers a degree of rigidity sufficient to enha ..."}, "GST-Grb7-SH2": {"target": "T2, GST-Grb7-SH2 (UniProt Q14451 415-532)", "T2 construct": "Captured on the chip by an anti-GST antibody; also called Grb7-SH2 domain", "T2 sequence (Q14451 415-532)": "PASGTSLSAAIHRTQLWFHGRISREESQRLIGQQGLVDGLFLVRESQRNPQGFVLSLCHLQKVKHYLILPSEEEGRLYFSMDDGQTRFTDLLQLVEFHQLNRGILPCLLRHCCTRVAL", "assay": "SPR; BIAcore T100, CM5 chip; GST-Grb7-SH2 held (close to 2800 RU) on amine-coupled anti-GST antibody, GST alone on the reference flow cell; peptides 0.015 to 250 uM injected at 30 uL/min for 60-80 s in triplicates; 50 mM Na3PO4, 150-300 mM NaCl, 1 mM DTT, pH 7.4; KD from steady-state responses, single-site binding model", "settings": "both partners purified"}}, "note": "Read-outs that look alike come from different tables or passages of the source. Positions of bridges follow the written chain, without caps; N, C: chain ends. Residues, ends and D or L forms follow the SMILES beside them. No end group written: not given here.", "data": [{"molecule": "KFEGYDNEC (also: bicyclic or more (positions not given here)) [G7-B7]", "values": [{"measurement": "membrane permeability", "setting": "[1]", "result": "membrane-impermeable"}]}, {"molecule": "NC(=O)C[C@@H]1NC(=O)[C@H](CC(=O)O)NC(=O)[C@H](Cc2ccc(O)cc2)NC(=O)CNC(=O)[C@H](CCC(=O)O)NC(=O)[C@H](Cc2ccccc2)NC(=O)[C@@H]2CCCCNC(=O)CC[C@H](NC1=O)C(=O)N[C@@H](Cc1ccccc1)C(=O)N1CCC[C@H]1C(=O)N[C@H](C(N)=O)CSCC(=O)N2", "note": "[G7-B8] ({CH2CO}-KFEGYDNEFPC-NH2; lactam 1-8; thioether N-11; C-terminus assumed)", "values": [{"measurement": "Kd", "setting": "Grb7-SH2 domain [2]", "result": "0.86 ± 0.08", "unit": "µM"}, {"measurement": "fold increase in affinity over G7-18NATE", "setting": "Grb7-SH2 domain [2]; ratio of SPR KD values", "result": "approximately 8 fold"}]}, {"molecule": "G7-B1: bicyclic G7 peptide with O-allylserine-based olefin staple between positions 1 and 8 (SFEGYDNSFPC; bicyclic: O-allylserine at positions 1 and 8 (parent Ser) joined by olefin staple (ring-closing metathesis); thioether linkage from N-terminal amine (acetyl/CH2CO) to Cys11 side chain; C-terminal amid)", "values": [{"measurement": "Kd", "setting": "Grb7-SH2 domain [3]", "result": 1.5, "unit": "µM"}]}, {"molecule": "NC(=O)C[C@@H]1NC(=O)[C@H](CC(=O)O)NC(=O)[C@H](Cc2ccc(O)cc2)NC(=O)CNC(=O)[C@H](CCC(=O)O)NC(=O)[C@H](Cc2ccccc2)NC(=O)[C@@H]2CCCCNC(=O)CC[C@H](NC1=O)C(=O)N[C@@H](Cc1ccccc1)C(=O)N[C@@H](Cc1c[nH]c3ccccc13)C(=O)N[C@H](C(N)=O)CSCC(=O)N2", "note": "[G7-B9] ({CH2CO}-KFEGYDNEFWC-NH2; lactam 1-8; thioether N-11; C-terminus assumed)", "values": [{"measurement": "Kd", "setting": "Grb7-SH2 domain [2]", "result": "2.68 ± 0.39", "unit": "µM"}]}, {"molecule": "N=C(N)NCCC[C@@H]1NC(=O)[C@H](Cc2ccccc2)NC(=O)[C@@H]2CCC(=O)NCCCC[C@H](NC(=O)CSC[C@@H](C(N)=O)NC1=O)C(=O)N[C@@H](Cc1ccccc1)C(=O)N[C@@H](CCC(=O)O)C(=O)NCC(=O)N[C@@H](Cc1ccc(O)cc1)C(=O)N[C@@H](CC(=O)O)C(=O)N[C@@H](CC(N)=O)C(=O)N2", "note": "[G7-B10] ({CH2CO}-KFEGYDNEFRC-NH2; lactam 1-8; thioether N-11; C-terminus assumed)", "values": [{"measurement": "Kd", "setting": "Grb7-SH2 domain [2]", "result": "1.15 ± 0.408", "unit": "µM"}]}, {"molecule": "B1", "values": [{"measurement": "Kd", "setting": "GST-Grb7-SH2", "result": 7.83, "unit": "µM"}]}]}
